In publication PMC10975012, “The Active Glucuronide Metabolite of the Brain Protectant IMM-H004 with Poor Blood–Brain Barrier Permeability Demonstrates a High Partition in the Rat Brain via Multiple Mechanisms” (Pharmaceutics, 2024):
Read-outs that look alike come from different tables or passages of the source.

System: P-gp
Assay: Bidirectional transport in MDCKⅡ-MDR1 cell monolayers
Assay type: in vitro ADME
Conditions: dog
Procedure: To further validate the effect of P-gp on the transport of IMM-H004G or IMM-H004, MDCKⅡ-MDR1 cells were seeded onto polycarbonate membrane transwell inserts in 24-well plates and used for transport studies after 5 days or when the effective transepithelial electric resistance (TEER) values exceeded 300 Ω·cm^2. The monolayers were initially rinsed twice with HBSS. Subsequently, IMM-H004G or IMM-H004 (10 µmol/L) was added to either the apical or basolateral side of the monolayer. Aliquots of 50 µL were collected from the opposite compartment at various time points, covering a maximum duration of 120 min. Digoxin (5 μmol/L) was used as a positive substrate, while PSC833 (5 µmol/L) was used as an inhibitor in MDCKⅡ-MDR1 cells. The apparent permeability value (Papp) was calculated using the following equation:(2) Papp=dQ/dt/AC0 where dQ/dt is the slope of the cumulative transport amount over time during the study period. A is the base area of the insert, and C0 is the initial addition concentration.
The efflux ratio (ER) was calculated as follows:ER = Papp(B−A)/Papp(A−B) (3)

efflux ratio at 120 min (MDCK-MDR1, with PSC833 5 µmol/L, MDCKⅡ-MDR1, PSC833 5 µmol/L, read-out: efflux ratio (ER) in the presence of PSC833): 1.41
efflux ratio at 120 min (MDCK-MDR1, MDCKⅡ-MDR1, no inhibitor, IMM-H004 10 µmol/L, digoxin 5 μmol/L, read-out: efflux ratio (ER)): 21.1
Compound: C[C@H]1O[C@@H](O[C@H]2[C@@H](O)C[C@H](O[C@H]3[C@@H](O)C[C@H](O[C@H]4CC[C@@]5(C)[C@H](CC[C@@H]6[C@@H]5C[C@@H](O)[C@]5(C)[C@@H](C7=CC(=O)OC7)CC[C@]65O)C4)O[C@@H]3C)O[C@@H]2C)C[C@H](O)[C@@H]1O [digoxin, reference compound]
